In the oligonucleotide strings, read from the 5' end, every base follows the letter of its sugar. An asterisk marks phosphorothioate; unmarked linkages are phosphodiester. Other units and linkages are bracketed, terminal groups are in braces. A string of capitals states the bases alone. e = 2'-O-(2-methoxyethyl) (MOE); [5mC] = 5-methylcytosine; d = 2'-deoxy (DNA)
Legend:
[1] = system: mir-15a miRNA; assay: pGL3-mir-15a sensor luciferase assay in HeLa cells; assay type: cell-based, human; settings: pGL3-mir-15a sensor-expressing HeLa cells
Description: In order to assess the ability of miRNAs to bind predicted miRNA binding sites and regulate the expression of the luciferase reporter, in some embodiments, expression systems based on the pGL3-Control (Promega Corp., Madison Wis.) reporter vector and comprising either a mir-15a, mir-21, or a mir-23b miRNA binding site were developed and used in transient transfections of HeLa cells to determine whether the endogenous mir-15a, mir-21, or mir-23b miRNAs, respectively, could repress luciferase reporter gene expression.
The pGL3-mir-15a sensor plasmid was created by cloning the sequence ([…]; SEQ ID NO: 369), complementary to the mir-15a miRNA, into the Xba site of the pGL3-Control plasmid, placing the potential miRNA-binding site in the 3′UTR of the luciferase reporter. This reporter plasmid was used to transfect HeLa cells and it was observed that the endogenous mir-15a miRNA was able to inhibit luciferase expression from the pGL3-mir-15a sensor plasmid. Thus, to further evaluate the ability of the mir-15a miRNA to bind this target site encoded by the pGL3-mir-15a sensor plasmid, and to assess the ability of oligomeric compounds to interfere with mir-15a-mediated silencing, pGL3-mir-15a sensor-expressing HeLa cells were treated with varying concentrations (3-, 10- or 30 nM) of the following oligomeric compounds: ISIS Number 327951 (SEQ ID NO: 369) is a uniform 2′-MOE compound targeting the mature mir-15a-1 miRNA. ISIS Numbers 356213 (SEQ ID NO: 878), 356215 (SEQ ID NO: 879), 356216 (SEQ ID NO: 880), 356218 (SEQ ID NO: 881), 356221 (SEQ ID NO: 882), 356227 (SEQ ID NO: 883) and 356229 (SEQ ID NO: 884) are phosphorothioate, uniform 2′-MOE oligomeric compounds designed and synthesized to target the entire length of the mir-15a pri-miRNA molecule (described in detail in Example 28, below). […] The data presented in Table 42 are the average of three trials and are presented as percent untreated control (luciferase plasmid only, not treated with oligomeric compound) luciferase expression, normalized to pRL-CMV levels.

[2] = system: mir-15a pri-miRNA; assay: mir-15a pri-miRNA expression in T47D cells (real-time RT-PCR); assay type: cell-based, human; settings: real-time RT-PCR
Description: The gapmer oligomeric compounds targeting the mir-15b and mir-15-a-1 mature miRNAs described above were also transfected into T47D cells according to standard procedures. In addition, uniform 2′-MOE and 2′-MOE gapmer oligomeric compounds targeting the mature mir-15a-1 and mir-15b miRNAs were also transfected into T47D cells, for analysis of their effects on mir-15a-1 and mir-15b pri-miRNA levels. The oligomeric compounds ISIS Number 327927 (SEQ ID NO: 345), a uniform 2′-MOE compound and ISIS Number 345391 (SEQ ID NO: 345), a 2′-MOE 5-10-7 gapmer compound, both target mir-15b. The oligomeric compounds ISIS Number 327951 (SEQ ID NO: 369), a uniform 2′-MOE compound, and ISIS Number 345411 (SEQ ID NO: 369), a 2′-MOE 5-10-7 gapmer compound, both target mir-15a-1. Oligomeric compounds ISIS Number 129686 ([…]; SEQ ID NO: 901), and ISIS Number 129691 ([…]; SEQ ID NO:902), both universal scrambled controls, as well as ISIS Number 116847 ([…]; SEQ ID NO: 844) targeting an unrelated gene, PTEN, were used as negative controls. ISIS Numbers 129686, 129691, and 116847 are phosphorothiated 2′-MOE 5-10-5 gapmers, and all cytosines are 5-methylcytosines. T47D cells (seeded in 12-well plates) were treated with these oligomeric compounds, and RNA was isolated from the treated cells by lysing in 1 mL TRIZOL™ (Invitrogen) and total RNA was prepared using the manufacturer's recommended protocols. To assess the effects of these compounds on expression of the mir-15a or mir-15b pri-miRNA molecules, real-time RT-PCR analysis was performed using either the primer/probe set specific for the mir-15a pri-miRNA molecule described above, or a primer probe set specific for the mir-15b pri-miRNA molecule: ISIS 339320 ([…]; SEQ ID NO: 903) was used as the forward primer for the mir-15b pri-miRNA, ISIS 339321 ([…] ACTGT; SEQ ID NO: 904) was used as the reverse primer for the mir-15b pri-miRNA, and ISIS 339322 ([…]; SEQ ID NO: 905) was used as the probe. Total RNA was quantified using RiboGreen™ RNA quantification reagent (Molecular Probes, Inc. Eugene, Oreg.), expression levels observed for each target were normalized to 5.8S rRNA, and values are expressed relative to the untreated control. Inhibition of expression of the mir15a or mir-15b pri-miRNA molecules upon treatment with these oligomeric compounds is was assessed and expressed as a percentage of RNA levels in untreated control cells.
Using the real-time RT-PCR methods described, the expression levels of the mir-15a pri-miRNA were compared in T47D cells treated with the nested series of uniform 2′-MOE oligomeric compounds, targeting and spanning the entire length of the mir-15a pri-miRNA. The region encompassing the mir-15a primary transcript (the complement of nucleotides 31603159 to 31603468 of GenBank Accession number NT—024524.13; AAATAATTATG […]) is incorporated herein as SEQ ID NO: 906. ISIS Number 356215 (SEQ ID NO: 879) targets a region flanking and immediately 5′ to the predicted 5′ Drosha cleavage site in the mir-15a pri-miRNA. ISIS Number 356218 (SEQ ID NO: 881) targets aregion in the loop of the mir-15a pri-miRNA. ISIS 356227 (SEQ ID NO: 883) targets a region flanking and immediately 3′ to the predicted 3′ Drosha cleavage site in the mir-15a pri-miRNA. Additionally, oligomeric compound ISIS 327951 (SEQ ID NO: 369), a uniform 2′-MOE compound targeting the mature mir-15a-1 miRNA, was tested for comparison. Oligomeric compounds ISIS 327901 (SEQ ID NO: 319) targeting the mature mir-143 miRNA; ISIS 129690, ([…]; SEQ ID NO: 907), a phosphorothioate 5-10-5 MOE gapmer used as a universal scrambled control; and ISIS 116847 ([…]; SEQ ID NO: 844), a uniform 5-10-52′-MOE gapmer targeting an unrelated gene, PTEN, were used as negative controls. Using the transfection methods previously described, T47D cells were treated with 100 nM of each of these oligomeric compounds. […]

[3] = system: mir-30a pri-miRNA; assay: mir-30a luciferase reporter (pGL3C-M30-4X) assay in 293T cells; assay type: cell-based, human; settings: for percent control luciferase expression: 150 nM oligomeric compound, then mir-30a pri-miRNA mimic 200 nM, pGL3C-M30-4X normalized to pRL-CMV; for reversing the mir-30a miRNA-mediated silencing of luciferase reporter: 150 nM, then mir-30a pri-miRNA mimic
Description: In one embodiment of the invention, oligomeric compounds targeting the hairpin structure of mir-30a pri-miRNA were designed and tested for their effects on miRNA signaling in 293T cells (American Type Culture Collection (Manassas, Va.)).
A synthetic DNA fragment comprised of four tandem repeats of the target site for mir-30a was cloned into the vector pGL3-C (purchased from Promega Corp., Madison Wis.) at the unique XbaI site (pGL3C-M30-4X). This places the target site in the 3′UTR of the luciferase reporter vector. An oligomeric compound mimicking the mir-30a pri-miRNA ([…] […], herein incorporated as SEQ ID NO: 1749) was in vitro transcribed using T7 RNA polymerase and a DNA template produced by PCR (the T7 promoter is shown in bold).
On the day prior to the experiment 24-well plates were seeded with 293T cells at 50% confluency. The following morning cells were treated with oligomeric compounds targeted to the mir-30a pri-miRNA mimic. All of the compounds are 20 nucleobases in length having either a phosphorothioate backbone throughout (PS) or a phosphodiester backbone throughout (PO). […] All cytidine residues are 5-methylcytidines. The remaining compounds in the table have 2′-methoxyethoxy (MOE) nucleotides throughout with either a phosphorothioate (PS) or phosphodiester (PO) internucleoside linkages.
Cells were washed once with PBS then oligomeric compounds were added to triplicate wells at 150 nM in OPTI-MEM™ media and 4.5 μl/ml LIPOFECTIN™ reagent (Invitrogen Corporation, Carlsbad, Calif.). After 3 hours, the media was removed, and the cells were treated with the mir-30a pri-miRNA mimic at 200 nM in OPTI-MEM™ with 6 μl/ml LIPOFECTIN™ reagent. After 3 hours the media was removed from the cells. The reporter plasmid, pGL3C-M30-4X, was then transfected using SuperFect reagent. 20 μg of pGL3C-M30-4X and 2 μg of pRL-CMV, a plasmid expressing Renilla luciferase, were suspended in 600 μL of serum-free DMEM to which 120 μl of Superfect was added. After a 5 minute incubation, 6 mls of DMEM+10% FCS was added. 125 μL of the plasmid/SuperFect suspension was added to each well. After a 2 hour incubation cells were washed and fresh growth media added. Cells were incubated overnight.
The following morning the media was removed and the cells were lysed in 120 μL passive lysis buffer (PLB; Promega). 40 μL of the lysate was then assayed for Photinus (PL) and Renilla (RL) luciferases using a Dual Luciferase Assay kit (Promega) according to the manufacturer's protocol. The results below are given as percent pGL3C-M30-4× expression (PL) normalized to pRL-CMV expression (RL). The 20-nucleobase oligonucleotide random-mer ISIS Number 29848 was used as a negative control.

[4] = system: IL-12 mRNA; assay: IL-12 mRNA in LPS-activated primary murine macrophages; assay type: cell-based, mouse; settings: normalized to LPS-treated cells without oligomeric compound
[5] = system: HuVECs; assay: Endothelial tube formation assay in HuVECs; settings: 75 nM oligomeric compound, Table 59

**Q.** “356213 (eT*eA*eT*eA*eA*e[5mC]*eA*eT*eT*eG*eA*eT*eG*eT*eA*eA*eT*eA*eT*eG) [compound 356213]” was tested. Which Relative luciferase activity ([1]; 3 nM) did it give?
**A.** Its Relative luciferase activity is 101.2.

**Q.** What about the Relative luciferase activity ([1]; 10 nM) of the same substance?
**A.** The Relative luciferase activity was 80.5.

**Q.** And the Relative luciferase activity ([1]; 30 nM)?
**A.** Its Relative luciferase activity is 109.9.

**Q.** And the “mir-15a pri-miRNA expression % UTC” value [2]?
**A.** Its value is 171 % UTC.

**Q.** Which results are given for “327874 (antisense eG*e[5mC]*eT*eG*e[5mC]*eA*eA*eA*e[5mC]*eA*eT*e[5mC]*e[5mC]*eG*eA*e[5mC]*eT*eG*eA*eA*eA*eG) [compound 327874]”?
**A.** percent control luciferase expression [3]: 66 percent control; IL-12 mRNA expression, −IFN % UTC ([4]; 300 nM oligomeric compound and LPS, no IFN-gamma pretreatment, single experiment): 202 % UTC; IL-12 mRNA expression, +IFN % UTC ([4]; 300 nM oligomeric compound, stimulation with IFN-gamma and LPS, average of 2 experiments): 15 % UTC; % Activity Relative to UTC (tube formation) [5]: 46.7%

**Q.** Which “reversing the mir-30a miRNA-mediated silencing of luciferase reporter” value [3] does the source give for “ISIS 328088: 5-10-5 2′-MOE gapmer, pseudo half-knot compound targeting the mir-30a pri-miRNA (antisense eA*eA*eG*e[5mC]*e[5mC]*d[5mC]*dA*dT*d[5mC]*dT*dG*dT*dG*dG*d[5mC]*eT*eT*e[5mC]*eA*e[5mC]; pseudo half-knot compound)” here?
**A.** Its value is “restoring luciferase reporter expression to near control levels”.

**Q.** “328088 (antisense eA*eA*eG*e[5mC]*e[5mC]*d[5mC]*dA*dT*d[5mC]*dT*dG*dT*dG*dG*d[5mC]*eT*eT*e[5mC]*eA*e[5mC]) [compound 328088]” was tested. Which “percent control luciferase expression” value [3] did it give?
**A.** The value was 107 percent control.

**Q.** For “ISIS 328086: 5-10-5 2′-MOE gapmer, pseudo half-knot compound targeting the mir-30a pri-miRNA (antisense e[5mC]*eA*eT*e[5mC]*eT*dG*dT*dG*dG*d[5mC]*dT*dT*d[5mC]*dA*d[5mC]*eA*eG*e[5mC]*eT*eT; pseudo half-knot compound)”, which “reversing the mir-30a miRNA-mediated silencing of luciferase reporter” value [3] is on record?
**A.** The value was “restoring luciferase reporter expression to near control levels”.

**Q.** With “328085 (antisense CATCTGTGGCTTCACAGCTT; all 2'-MOE, all phosphorothioate, methylation of C not given here; designed as pseudo half-knot compound) [compound 328085]” as the substance, how does the “percent control luciferase expression” value [3] read?
**A.** The value was 72 percent control.

**Q.** With “ISIS 328087: 2′-MOE throughout; pseudo half-knot compound targeting the mir-30a pri-miRNA (antisense AAGCCCATCTGTGGCTTCAC; all 2'-MOE, all phosphorothioate, methylation of C not given here; pseudo half-knot design targeting pri-miRNA hairpin)” as the substance, how does the “reversing the mir-30a miRNA-mediated silencing of luciferase reporter” value [3] read?
**A.** Its value is “restoring luciferase reporter expression to near control levels”.

**Q.** With “328078 (antisense e[5mC]*e[5mC]*e[5mC]*eA*eT*d[5mC]*dT*dG*dT*dG*dG*d[5mC]*dT*dT*d[5mC]*eA*e[5mC]*eA*eG*e[5mC]) [compound 328078]” as the substance, how does the “percent control luciferase expression” value [3] read?
**A.** Its value is 63 percent control.

**Q.** With “328087 (antisense AAGCCCATCTGTGGCTTCAC; all 2'-MOE, all phosphorothioate, methylation of C not given here; pseudo half-knot design targeting pri-miRNA hairpin) [compound 328087]” as the substance, how does the “percent control luciferase expression” value [3] read?
**A.** Its value is 83 percent control.
